Assay results taken from paper PMC8065335, “An integrative drug repositioning framework discovered a potential therapeutic agent targeting COVID-19” (Signal Transduction and Targeted Therapy, 2021).
pEC50, pKd: −log10 of the molar value. Like-named read-outs stand apart in the source and are kept apart here.

Tests used:
IL-10 = assay: LPS-induced IL-10 production in PBMCs (ELISA); format: cell-based, human; conditions: for LPS-induced expression of IL-10: 3 μM
Procedure: (§1) Peripheral blood mononuclear cells (Allcells) were cultured at 37 °C at concentration 5% CO2 atmospheric on a 96-well plate in RPMI1640 cell growth medium (Gibico, Cat. 11875-093). For stimulation, PBMC cells were incubated with 1 μg/mL LPS (Sigma, Cat. L2880-25MG). To test whether CVL218 and olaparib can inhibit the production of IL-6, IL-10, IFN-γ, TNF-α, 1 μM and 3 μM concentrations of CVL218 or olaparib were added to cell culture medium for 6 and 24 h, respectively. The concentration of each cytokine was determined by ELISA using a commercial kit (BioLegend, USA).

[1] = biological target: nucleocapsid (N) protein of SARS-CoV-2 (SARS-CoV-2-N) (Severe acute respiratory syndrome coronavirus 2, UniProt P0DTC9); format: binding; conditions: for pKd: read-out: dissociation constant (KD)
SARS-CoV-2 [2] = assay: inhibitor combination assay in Vero E6 cells; format: cell-based
Procedure: The cytotoxicity of the tested drugs on Vero E6 cells was determined by the CCK8 assays (Beyotime, China). At 48 h post addition of the tested drugs, 20 μL CCK8 was added to each well and incubated at 37 °C for 1 h. Then optical density was measured at 450 nm. The 50% cytotoxic concentration (CC50) values were calculated using GraphPad Prism 5 (GraphPad Software, USA). Vero E6 cells were seeded into 96-well plates with a density of 5 × 10^4 cells/well for incubation in DMEM medium supplemented with 10% FBS for 16 h in an incubator with 5% CO2 at 37 °C, for cells to reach 80% confluent. Then, cell culture medium of each well was removed, and PBS was used to wash the cells once, before evaluating the antiviral efficacy of the tested drugs. Four duplicated wells were made for each dose of drugs, and the cells were pretreated with different doses of antiviral drugs diluted by the cell maintenance solution (50 μL per well) for 1 h. For the virus control and cell control wells, cell medium containing DMSO or only medium of 50 μL per well was added. Next, pretreated or untreated cells in each well were infected with the virus with a multiplicity of infection (MOI) of 0.05 for 2 h. […] Then culture supernatant per well was harvested and inactivated at 56 °C for 30 min to further extract and quantify viral RNA. […]

TNF-α = assay: LPS-induced TNF-α production in PBMCs (ELISA); format: cell-based, human; conditions: both 3 μM and 1 μM; 6 h and 24 h
Procedure: as §1

[3] = biodistribution (tissue distribution) study in rats; format: in vivo, Sprague-Dawley rats; conditions: 20 mg/kg oral, 180 min time point
[4] = four-week toxicity and toxicokinetic study in rats; format: in vivo, Sprague-Dawley rats; conditions: for AUC0−24: dose not given
Procedure: Sprague-Dawley rats were purchased from Shanghai Laboratory Animal Center, China. The animals were grouped and housed in wire cages with no more than six per cage, under good laboratory conditions (temperature 25 ± 2 °C; relative humidity 50 ± 20%) and with dark and light cycle (12 h/12 h). Only healthy animals were used for experimental purpose. The pharmacokinetics and biodistribution study in Sprague-Dawley rats was approved by Center for Drug Safety Evaluation and Research, Shanghai Institute of Materia Medica, Chinese Academy of Sciences. A total of 144 Sprague-Dawley rats with each sex were used for toxicity study. Animals were randomly separated into four groups (18/sex/group). CVL218 was administered at doses of 20, 40, 60, and 160 mg/kg. For all the groups, 20 rats (10/sex/group) were randomly selected and euthanized at day 28, and their sections of various tissues and organs were obtained and frozen. Ten (5/sex/group) animals were euthanized after a 28-day drug free period, and their sections of tissues and organs were obtained and frozen. Six (3/sex/group) were euthanized after the blood samples were obtained. For pharmacokinetic and toxicity evaluation, clinical symptoms, mortality and the animals’ body weight were examined. Serum (0.5 mL) was collected to analyze toxicokinetics at different timepoints post drug administration. The plasma concentration-time data were analyzed using a noncompartmental method (Phoenix, version 1.3, USA) to derive the pharmacokinetic parameters.

IL-6 = assay: LPS-induced IL-6 production in PBMCs (ELISA); format: cell-based, human
Procedure: as §1

[5] = 28-day toxicity and toxicokinetic study in cynomolgus monkeys; format: in vivo; conditions: for AUC0−24: dose not given
Procedure: Healthy male and female cynomolgus monkeys aged 3–4 years were purchased from Guangdong Landau Biotechnology, China. The animals were maintained in accordance with the Guide for the Care and Use of Laboratory Animals.
Cynomolgus monkey (5/sex/group) were selected using a computerized randomization procedure, and administered CVL218 by nasogastric feeding at dose levels of 0 (control), 5, 20, 80 mg/kg. Individual dose volumes were adjusted weekly based on body weight of monkeys. The monkeys were observed twice daily for viability/mortality and for any change in behavior, reaction to treatment or ill-health. Electrocardiograms, intraocular pressure, rectal temperature and body weight were recorded. For all the groups, […] of the animals were randomly selected and euthanized at day 28. The remaining animals were euthanized after a 28-day drug free period. Blood samples were taken before and at 0.5, 1, 2, 4, 8, and 24 h post-dose on days 1 and 28 of the treatment period. Pharmacokinetic evaluation was performed using a noncompartmental method (Phoenix, version 1.3, USA) and pharmacokinetic parameters were calculated for individual monkeys.

SARS-CoV-2 [6] = assay: indirect immunofluorescence / RT-PCR of virus nucleoprotein expression in infected Vero E6 cells; format: cell-based
IFN-γ = assay: LPS-induced IFN-γ production in PBMCs (ELISA); format: cell-based, human; conditions: both 3 μM and 1 μM; 6 h and 24 h
Procedure: as §1

Vero E6 cells = conditions: CCK8, 48 h
[7] = Phase I clinical trial, ascending dose studies; format: in vivo, human; conditions: doses as high as 1000 mg QD and 500 mg BID; preliminary Phase I data
SARS-CoV-2 [8] = assay: in vitro anti-SARS-CoV-2 virus infection assay in Vero E6 cells, viral yield in supernatant by qRT-PCR; format: cell-based
[9] = set-up: method as in earlier work; conditions: rats, 54 mg/kg oral; cited from earlier work
SARS-CoV-2 [10] = assay: time-of-addition assay (full-time, entry, post-entry) in Vero E6 cells; format: cell-based; conditions: Severe acute respiratory syndrome coronavirus 2, Vero C1008, 14 h
[11] = set-up: method as in https://www.ema.europa.eu/en/medicines/human/EPAR/rubraca; conditions: ref https://www.ema.europa.eu/en/medicines/human/EPAR/rubraca; cited from earlier work
[12] = rats, oral gavage once a day for 28 days
[13] = monkeys, nasogastric, daily for 28 days
[14] = Severe acute respiratory syndrome coronavirus 2, Vero C1008, read-out: % Inhibition of SARS-CoV-2 replication

CNCc1ccc(-c2cc3cc(F)cc(C(N)=O)c3o2)cc1 [CVL218]
LPS-induced expression of IL-10 (IL-10; after 6 h): not downregulated | LPS-induced expression of IL-10 (IL-10; after 24 h, p < 0.001): dramatically reduced | pKd ([1]; SPR, immobilized SARS-CoV-2-N): 5.51 | inhibition rate against SARS-CoV-2 replication (SARS-CoV-2 [2]; CVL218 alone at 3.5 μM): 36% | LPS-induced concentration of TNF-α (TNF-α): significant decrease | lung concentration compared to that in plasma [3]: 188 fold | AUC0−24 ([4]; female rats, day 1): 7605 ng·h/mL | AUC0−24 ([4]; female rats, day 28): 6657 ng·h/mL | AUC0−24 ([4]; male rats, day 1): 9102 ng·h/mL | AUC0−24 ([4]; male rats, day 28): 10253 ng·h/mL | body weight versus control groups ([4]; rats, 20/60/160 mg/kg oral, 28 days + 28 days recovery): no significant difference | maximum tolerable dose (MTD) [4, 12]: 160 mg/kg | no-observed adverse effect level (NOAEL) [4, 12]: 20 mg/kg | signs of toxicity after 28-day treatment period ([4]; rats, repeated dose): no apparent sign of toxicity | LPS-induced production of IL-6 (IL-6; 3 μM, after both 6 h and 24 h incubation, p < 0.01): significantly repressed | AUC0−24 ([5]; female monkeys, day 1): 19466 ng·h/mL | AUC0−24 ([5]; female monkeys, day 28): 18774 ng·h/mL | AUC0−24 ([5]; male monkeys, day 1): 16924 ng·h/mL | AUC0−24 ([5]; male monkeys, day 28): 22912 ng·h/mL | accumulation after consecutive 28 days of drug administration ([5]; monkeys, 5, 20 or 80 mg/kg): not apparent | increase of exposure (AUC0−24) with dose ([5]; monkeys, 5, 20 or 80 mg/kg): approximately dose proportional | body weight ([5]; monkeys, high-dose (80 mg/kg) group, reversed after 28-day recovery): slight decrease | maximum tolerable dose (MTD) [5, 13]: 80 mg/kg | no-observed adverse effect level (NOAEL) [5, 13]: 5 mg/kg | cytopathic effect in the infected cells (SARS-CoV-2 [6]; 25 μM): no obvious cytopathic effect | expression level of N gene compared to DMSO (SARS-CoV-2 [6]; RT-PCR, 5, 15, 25 μM, 48 h post infection): Lower expression level | virus nucleoprotein (NP) expression compared to DMSO treated cells (SARS-CoV-2 [6]; immunofluorescence microscopy, 5, 15, 25 μM, dose-response): significantly lower | LPS-induced concentration of IFN-γ (IFN-γ): significant decrease | CC50 (Vero E6 cells): 90.6 µM | adverse events in human [7]: no Grade II and above adverse events | tolerability in human [7]: well tolerated | % Inhibition of SARS-CoV-2 replication (SARS-CoV-2 [8]; 3 μM, Vero E6, MOI 0.05, qRT-PCR, preliminary test): 34.64% | pEC50 (SARS-CoV-2 [8]; Vero E6, MOI 0.05, 48 h, read-out: EC50 against SARS-CoV-2 replication): 5.28

CCOC(=O)C1=C[C@@H](OC(CC)CC)[C@H](NC(C)=O)[C@@H](N)C1 [Oseltamivir]
inhibition at 3 µM (SARS-CoV-2 [8]; [14]): -13.7%

CN(C)CC(=O)Nc1ccc2[nH]c(=O)c3ccccc3c2c1.Cl [PJ-34, N-(6-oxo-5,6-dihydrophenanthridin-2-yl)-N, N-dimethylacetamide. HCl]
fold lower binding affinity than CVL218 [1]: about 22 fold | pKd [1]: 4.17

CC(=O)N[C@H]1[C@H]([C@H](O)[C@H](O)CO)OC(C(=O)O)=C[C@@H]1N=C(N)N [Zanamivir]
inhibition at 3 µM (SARS-CoV-2 [8]; [14]): -10.4%

CCOC(=O)c1c(CSc2ccccc2)n(C)c2cc(Br)c(O)c(CN(C)C)c12 [arbidol]
tissue distribution post administration [9]: mostly distributed in stomach and plasma | inhibition at 30 µM (SARS-CoV-2 [8]; [14]): 99% | inhibition at 3 µM (SARS-CoV-2 [8]; Severe acute respiratory syndrome coronavirus 2, Vero C1008, 3 μM, Vero E6, MOI 0.05, qRT-PCR, preliminary test, read-out: % Inhibition of SARS-CoV-2 replication): 21.8%

NC(=O)c1nc(F)c[nH]c1=O [favipiravir, reference compound]
inhibition rate against SARS-CoV-2 replication (SARS-CoV-2 [2]; favipiravir alone at 30 μM): no inhibitory activity

O=C(c1cc(Cc2n[nH]c(=O)c3ccccc23)ccc1F)N1CCN(C(=O)C2CC2)CC1 [olaparib, reference compound]
LPS-induced stimulation of IL-10 (IL-10; both 3 μM and 1 μM): no significant inhibition | dissociation constant (KD) ([1]; SPR, immobilized SARS-CoV-2-N): no binding signal | LPS-induced concentration of TNF-α (TNF-α): no significant inhibition | LPS-induced stimulation of IL-6 (IL-6; both 3 μM and 1 μM): no significant inhibition | LPS-induced concentration of IFN-γ (IFN-γ): no significant inhibition | inhibition at 3.2 µM (SARS-CoV-2 [8]; Severe acute respiratory syndrome coronavirus 2, Vero C1008, 3.2 μM, Vero E6, MOI 0.05, qRT-PCR, preliminary test, read-out: % Inhibition of SARS-CoV-2 replication): 15.3%

CCC(CC)COC(=O)[C@H](C)N[P@](=O)(OC[C@H]1O[C@@](C#N)(c2ccc3c(N)ncnn23)[C@H](O)[C@@H]1O)Oc1ccccc1 [remdesivir]
inhibition at 10 µM (SARS-CoV-2 [10]; read-out: % Inhibition, Entry): 5.86% | inhibition at 10 µM (SARS-CoV-2 [10]; read-out: % Inhibition, Full-time): 92.9% | inhibition at 10 µM (SARS-CoV-2 [10]; read-out: % Inhibition, Post-entry): 91.9%

CNCc1ccc(-c2[nH]c3cc(F)cc4c3c2CCNC4=O)cc1 [rucaparib]
accessibility in the lung tissue [11]: poor accessibility
